The subject of experiment [1] is stem cell. The experiment can be described thus: MTT cell viability assay. Particulars: treated for 5 days, sublethal dose. The experiment is classed as cell-based. How it is done:
The effect of HL156A, TMZ, and combined HL156A and temozolomide on the survival of cells was determined by 3-(4,5-dimethylthiazol-2-yl)-2,5-diphenyl tetrazolium bromide (MTT) assay. Cells were seeded in 96-well plates and incubated at 37° C. for 24 hours and treated with HL156A, TMZ, and the combination thereof for 5 days. MTT reagent (10 μl/well) was added, incubated at 37° C. for 4 hours and the absorbance was measured at 490 nm. Each experiment was repeated three times and the results were expressed as % viable cells over control.
(Tetrazolium assays rely on reduction of a dye to a coloured formazan, in cell work by metabolically active cells.)

The subject of experiment [2] is AMPK and mTOR pathway of GSC11 and X01 cells. The experiment can be described thus: Western blotting of AMPK-mTOR pathway-related proteins. Type of experiment: cell-based, human. The protocol: (§1) For Western blotting, 20 μg total protein from each sample was treated with Laemmli sample buffer and heated at 100° C. for 5 minutes. This was then loaded into each well and was resolved by 8% SDS-polyacrylamide gel electrophoresis (PAGE) and eleetroblotted onto nitrocellulose membranes (GE Healthcare life-Sciences). Membranes were blocked in 5% non-fat dry milk in TBS-T, and incubated with antibodies for AMPK-mTOR pathway-related proteins, stemness markers, and EMT-related markers overnight at 4° C., and then probed with peroxidase-conjugated goat anti-rabbit IgG (1:2000, santa cruz) for 1 hour at room temperature. The washes were repeated and the membrane was developed with a chemiluminescent agent (ECL; Amersham Life Science, Inc.). Band densities were measured using TINA image software (Raytest, Straubenhardt, Germany).
In general terms: In western blotting, separated proteins are transferred to a membrane and probed.

In experiment [3] the test system is GSC11 and X01 cells. The experiment can be described thus: Neurosphere formation assay. The experiment is classed as cell-based, human. Particulars: GSC11 and X01, cultured for 3 weeks. How it is done:
For Neurosphere formation assay, the GSC11 and X01 cells were cultured in medium consisting of DMEM/F-12 with 2% 1×B27, 20 ng/ml 0.02% bFGF, 20 ng/ml 0.02% EGF, and 1% antibiotic-antimycotic solution (100×, Gibco, Invitrogen Korea, Seoul, South Korea). The cells were cultured in different conditions for 3 weeks. […] Photographs of cells were obtained with a digital camera (DP70 Digital Microscope Camera; Olympus), using DP Controller software (Olympus).

Experiment [4] relates to stemness markers such as nestin, CD133, Sox-2, Notch 1, Notch 2, and Oct3/4 in GSC11 or X01. The experiment in a line: Western blotting of stemness markers. The experiment is classed as cell-based, human. How it is done: as §1
Experiment [5] has as its system GSC11 and X01. The experiment in a line: Neuro-glial differentiation (neuronal marker expression). Type of experiment: cell-based, human.
For experiment [6], the system named is G-GSC11 spheroids. The experiment can be described thus: 3D collagen I matrix invasion assay. Type of experiment: cell-based, human. The protocol:
The G-GSC11s grown in spheroid were cultured in collagen I matrices using polydimethylsiloxane (PDMS)-based micro-wells (diameter and depth of microwells: […] and 500 μm). The microwells were treated with a 1% poly(ethyleneimine) (Sigma-Aldrich, St. Louis, Mo., USA) solution for 10 minutes followed by 0.1% glutaraldehyde (Sigma-Aldrich, St. Louis, Mo., USA) for 30 minutes and washed with PBS overnight lo make PDMS wells adherent to collagen. The 4 mg/ml collagen I matrices are prepared from high-concentration rat tail collagen I (BD Bioscience, CA, USA) using the recommended manual provided by the manufacturer. Briefly, the amounts of 10× phosphate buffered saline (PBS), 1N NaOH, sterile dH2O, and collagen I were mixed to create gels based on the desired final concentration. The solution was well mixed and kept at 4° C. before use. To encapsulate G-GSC11 spheroid, 10 μl of a collagen I solution (4 mg/ml) were pipetted into the micro-well, single G-GSC11 spheroid was placed onto collagen I matrices from the culture plate, and 10 μl of a collagen I solution (4 mg/ml) was dropped onto G-GSC11 spheroid. The platform was incubated at 37° C. and 5% CO2 for 30 minutes. The cell viability was characterized by staining G-GSC11 spheroid with 8 μM Ethidium homodimer-1 (Invitrogen Korea, Seoul, South Korea) for 30 minutes at 37° C. before implantation in collagen matrix. After fall gelation, a superlayer of culture medium consisting of DMEM/F-12 with 2% 1×B27, 20 ng/ml 0.02% bFGF, 20 ng/ml 0.2% EGF, and 1% antibiotic-antimycotic solution (100× Gibco, Invitrogen Korea, Seoul, South Korea) was then added. To observe drug effects, drugs were mixed with medium considering the final concentration of each drug. […] To quantitate the invasion assay, the maximal area covered by migrating edges of cells was used as a parameter for defining invasiveness (invaded area at certain time/spheroid area at initial time×100). Data was analyzed through image analysis software ImageJ (NIH, Bethesda, Md., USA).

Experiment [7] deals with EMT-related markers such as β-catenin, zeb1, N-cadherin, and snail. The experiment can be described thus: Western blotting of EMT-related markers. Type of experiment: cell-based, human. Conditions: tumorspheres. The protocol:
as §1

Experiment [8] has as its system GSC11. The experiment can be described thus: 18F-FDG uptake (cellular metabolism). The experiment is classed as cell-based, human. Conditions: 15 minutes incubation, radioactivity normalized to protein content. The protocol: In order to assess the effect of drugs on the cellular metabolism, ^18F-FDG uptake was examined, GSC11 were plated on 12-well plates with 3×10^5 cells per well for 24 hours. The medium was changed to a glucose-free DMEM medium (Gibco, Invitrogen Korea, Seoul, South Korea) containing approximately 0.5 μCi of ^18F-FDG, followed by incubation for 15 minutes. The cells were washed with phosphate-buffered saline 3 times and 0.1 ml of lysis buffer was added to each well. The lysed cells were then harvested to measure the amount of radioactivity by Wallac 148 Wizard 3 gamma-counter (PerkinElmer Life and, Analytical Science, Shelton, Conn., USA). The radioactivity measured was normalized to protein content.

Experiment [9] deals with GSC11 orthotopic xenograft. The experiment can be described thus: Orthotopic xenograft mouse model. The experiment is classed as in vivo, male athymic nude mice. Conditions: stained tumors. The protocol: Finally, the effect of the drags on the tumors of orthotopic xenograft mice was analyzed, 4- to 8-week-old male athymic nude mice (Central Lab. Animal Inc., Seoul, South Korea) were used for experiments. Mice were housed in micro-isolator cages under sterile conditions and observed for at least 1 week before study initiation to ensure proper health. Lighting, temperature, and humidity were controlled centrally. All experimental procedures were approved by Yonsei University College of Medicine Institutional Animal Care and Use Committee. Mice were anesthetized with a solution of Zoletil® (30 mg/kg; Virbac Korea, Seoul, South Korea) and xylazine (10 mg/kg; Bayer Korea, Seoul, South Korea) delivered intraperitoneally. GSC11 were implanted into the right frontal lobe of nude mice using a guide-screw system within the skull. Mice received 5×10^5 cells via a Hamilton syringe (Dongwoo Science Co., Seoul, South Korea) inserted to a depth of 4.5 mm. Then, 15 mg/kg of HL156A, 66.6 mg/kg of TMZ, and their combination were administrated to mice (n=5 per group). HL156A was given to mice by oral administration every other day until the duration of the experiment and TMZ was administrated intraperitoneally, for 5 days from the day of tumorsphere injection. The body weight of mice was checked every other day. […]

“Also recorded” adds a separate entry of the source.

Take `N=C(NC(=N)N1CCCC1)Nc1ccc(OC(F)(F)F)cc1` [HL156A, N—(N-(4-(trifluoromethoxy)phenyl)carbamimidoyl)pyrrolidine-1-carboximidamide]: the “cell viability (% viable cells over control)” value in experiment [1] is given as “minimal effect”. In [2], the “AMPK activation and consequent mTOR inhibition” value is “did not show expected AMPK activation”. The number of neurospheres result in experiment [3] was “markedly decreased”. In addition, in experiment [4], the “expression of stemness markers (CD133, OCT 3/4, Sox-2, Notch 1, Notch 2)” value is “Decreased expression”. Besides, in experiment [5], the “neuro-glial differentiation (expression of olig2, Tuj1, GFAP)” value is recorded as “did not promote”. The “cell viability during the invasion experiment” value in [6] is given as “no significant cell death”. Also, the invasiveness result is on record as “decreased invasiveness; also recorded: lesser degree of invasiveness” in [6] (implanted cells and drugs together (FIG. 3A)); “decreased invasiveness” in experiment [6] (pre-implanted, drug treatment 12 hours after implantation (FIG. 3B)). Besides, the “expression of β-catenin, zeb1, and N-cadherin (EMT-related markers)” value in experiment [7] is “altered; also recorded: diminished”. Besides, the 18F-FDG uptake result in experiment [8] is given as “markedly decreased”. Also, the “tumor margin versus control” value in [9] is given as “less irregular margin”.

(Values after patent US9539238B2, “Pharmaceutical composition comprising a biguanide derivative as an active ingredient for preventing or treating glioblastoma” (ImmunoMet Therapeutics, Inc., priority 2015, dated 2017).)
